Nc1ncnc2c1ncn2[C@@H]1O[C@H](COP(=O)(O)O)[C@@H](O)[C@H]1O
solubility (mole fraction)
Conditions | in acetic acid | in ethanol | in methanol | in water
288.15 K | 7.85e-05 | 5.3e-06 | 8.59e-06 | –
288.2 K | – | – | – | 0.000257
294.15 K | 0.000122 | 5.61e-06 | 9.35e-06 | –
294.2 K | – | – | – | 0.000336
300.15 K | 0.000186 | 6.75e-06 | 1.04e-05 | –
300.2 K | – | – | – | 0.000412
306.15 K | 0.000276 | 7.73e-06 | 1.15e-05 | –
306.2 K | – | – | – | 0.000526
312.15 K | 0.000395 | 9.24e-06 | 1.3e-05 | –
312.2 K | – | – | – | 0.000636
318.15 K | 0.000564 | 1.06e-05 | 1.41e-05 | –
318.2 K | – | – | – | 0.000768
324.15 K | 0.00075 | 1.24e-05 | 1.65e-05 | –
324.2 K | – | – | – | 0.000934
330.15 K | 0.000967 | 1.54e-05 | 1.79e-05 | –

From BigSolDB 2.1
